Earlier results as cited in patent US20020192774A1, “Method for processing lignocellulosic material” (priority 2000, published 2002).

System: yeast
Conditions: pH values as low as 4.5; Taherzadeh et al., 1997

CC(=O)O [Acetic acid]
acetate concentration at which yeast is able to grow: 10 g acetate per litre
